Data reported in patent US20260184708A1, “PYRIDAZINONES AND METHODS OF USE THEREOF” (GFB (ABC), LLC, priority 2017, published 2026).

Tests used:
TRPC5 [1] = target: T1, TRPC5 (Homo sapiens, UniProt Q9UL62); assay: TRPC5 Fluorescence Assay - FLIPR format (HEK-TREx hTRPC5, Riluzole stimulation); format: cell-based
T1 construct: expressed in transfected cells; host or cells: HEK 293
T1 sequence (Q9UL62 1-973): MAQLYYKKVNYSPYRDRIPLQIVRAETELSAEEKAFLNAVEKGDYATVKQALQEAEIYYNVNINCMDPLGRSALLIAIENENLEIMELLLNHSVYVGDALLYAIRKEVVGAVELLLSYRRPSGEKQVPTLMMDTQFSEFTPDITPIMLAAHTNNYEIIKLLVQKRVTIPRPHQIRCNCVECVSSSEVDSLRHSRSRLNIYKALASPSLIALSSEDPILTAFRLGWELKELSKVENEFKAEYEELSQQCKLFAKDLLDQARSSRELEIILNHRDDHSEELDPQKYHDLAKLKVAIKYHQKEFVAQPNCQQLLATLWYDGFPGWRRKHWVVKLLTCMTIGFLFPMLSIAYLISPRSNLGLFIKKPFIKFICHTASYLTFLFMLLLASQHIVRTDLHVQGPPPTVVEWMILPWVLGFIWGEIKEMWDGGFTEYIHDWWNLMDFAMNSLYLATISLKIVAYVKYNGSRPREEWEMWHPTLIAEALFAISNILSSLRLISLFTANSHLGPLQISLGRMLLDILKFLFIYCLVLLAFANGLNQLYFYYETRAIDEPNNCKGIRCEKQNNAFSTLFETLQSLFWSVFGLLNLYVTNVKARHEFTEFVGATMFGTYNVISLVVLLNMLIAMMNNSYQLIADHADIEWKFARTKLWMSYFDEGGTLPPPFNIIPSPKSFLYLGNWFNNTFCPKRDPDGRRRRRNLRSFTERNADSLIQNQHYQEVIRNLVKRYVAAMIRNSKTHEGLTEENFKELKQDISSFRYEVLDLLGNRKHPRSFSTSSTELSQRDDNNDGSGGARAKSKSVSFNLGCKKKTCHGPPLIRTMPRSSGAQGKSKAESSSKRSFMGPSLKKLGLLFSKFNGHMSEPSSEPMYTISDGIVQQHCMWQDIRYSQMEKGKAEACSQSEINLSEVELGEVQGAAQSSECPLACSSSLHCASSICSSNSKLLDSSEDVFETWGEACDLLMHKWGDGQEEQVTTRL
Procedure: • Cell line: ICLN-001633 • Base Cell: HEK • Channel: TRPC5 • Species: Human • Thaw ID: multiple • Passage: multiple
FLIPR Assay Buffer (Earls Balanced Salt Solution (EBSS) was prepared as follows:
Test Agent Preparation: Compounds were made up to, or supplied as, a 10 mM stock solution generally using DMSO as the vehicle. 10-point dose response curves were generated using the Echo-550 acoustic dispenser. Compound source plates were made by serially diluting compound stocks to create 10 mM, 1 mM, and 0.1 mM solutions in DMSO into Echo certified LDV plates. The Echo then serially spotted 100% DMSO stock solutions into source dose response plates to generate a 4-fold dilution scheme. 100% DMSO was added to the spotted dose response plates to bring the final volume to 5 μl. […] of the dose response stock plate was then spotted into pre-incubation and stimulation assay plates. 50 μl of pre-incubation buffer and 100 μl of stimulation buffer was then added to the plates resulting in a final assay test concentration range of 30 μM to 0.0001 μM with a final DMSO concentration of 0.3%.
Experimental Methods: Cells expressing TRPC5 (HEK-TREx hTRPC5) are plated onto 384 well, black PDL-coated microplates and maintained in TRPC5 growth media the day prior to use for experiments. TRPC5 expression is induced by the application of […] tetracycline at the time of plating. Media is removed from the plates and 10 μl of 4 μM of Fluo-4 AM (mixed with equal volume of Pluronic F-127) in EBSS is added to the cells. Cells are incubated at room temperature, protected from light, for 60-90 minutes. After the incubation period, the dye is removed and replaced with 10 μl of EBSS. Cell, pre-incubation and stimulation plates are loaded onto the FLIPR-II and the assay is initiated. The FLIPR measures a 10 second baseline and then adds 10 μl of 2× compounds (or controls). Changes in fluorescence are monitored for an additional 5 minutes. After the 5 minute pre-incubation, 20 μl of 2× Riluzole (with 1× compound or controls) is added to the cell plate. The final Riluzole stimulation concentration in the assay is 30 μM. After the Riluzole addition, changes in fluorescence are monitored for an additional 5 minutes.
Test Agent Effect: Test agent modulation of TRPC5 calcium response was determined as follows. After the Riluzole, fluorescence was monitored for a 5 minute period. The maximum relative fluorescene response (minus the control response of 1 μM of the control inhibitor) was captured and exported from the FLIPR. Test agent effect was calculated as % inhibition using the following formula: % inhibition=((RFU Test Agent−Plate Average RFU REF INHIB)/(Plate Average RFU Control−Plate Average RFU REF INHIB))×100

TRPC5 [2] = target: T1, TRPC5; assay: TRPC5 automated patch clamp assay (Qpatch), current block after rosiglitazone stimulation; format: cell-based
In short: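 HEK 293 cells expressing human TRPC5, whole-cell QPatch recording; 1 μM buffered free internal Ca2+, external pH 7.4. Ramps −100 to +100 mV over 300 ms every 10 s from −60 mV holding; channel activated by Rosiglitazone (30 uM) after ≥60 s control. IC50 from Hill fit.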

[3] = Table 10, read-out: TRPCS-FLIPR IC50
[4] = Table 9, read-out: hTRPCS-FLIPR IC50
[5] = Table 7, read-out: TRPC5-FLIPR IC50
[6] = Table 4, HEK293 cells overexpressing TRPC5, rosiglitazone stimulation, 80 mV, read-out: TRPC5_QP_ XC50_80
[7] = Table 4, HEK293 cells overexpressing TRPC5, rosiglitazone stimulation, 100 mV, read-out: TRPC5_QP_ XC50_100
[8] = Table 5, HEK293 cells overexpressing TRPC5, rosiglitazone stimulation, 80 mV, read-out: TRPC5_QP_ XC50_80
[9] = Table 5, HEK293 cells overexpressing TRPC5, rosiglitazone stimulation, 100 mV, read-out: TRPC5_QP_ XC50_100
[10] = Table 3, HEK293 cells overexpressing TRPC5, rosiglitazone stimulation, 80 mV, read-out: TRPC5_QP_ XC50_80
[11] = Table 3, HEK293 cells overexpressing TRPC5, rosiglitazone stimulation, 100 mV, read-out: TRPC5_QP_ XC50_100

Structure (SMILES): C[C@@H]1CCC[C@H]1Cn1nnc2c1CCN(c1cn[nH]c(=O)c1Cl)C2
- IC50 (TRPC5 [1]; [3]): 1e-05 to 1 µM

Structure (SMILES): NC(=O)C1(Cc2ccccc2C(F)(F)F)CCN(c2cn[nH]c(=O)c2Cl)CC1
- IC50 (TRPC5 [1]; [4]): 1 to 5 µM

Structure (SMILES): CNC(=O)c1nn([C@@H](C)c2ccccc2C(F)F)c2c1CN(c1cn[nH]c(=O)c1Cl)CC2
- IC50 (TRPC5 [1]; [3]): 1e-05 to 1 µM

Structure (SMILES): O=C(CN1CCN(c2cn[nH]c(=O)c2Cl)CC1)c1ccccc1C(F)(F)F
- IC50 (TRPC5 [1]; [4]): 1 to 5 µM

Structure (SMILES): N[C@@H](c1cc(F)ccc1Cn1nnc2c1CCN(c1cn[nH]c(=O)c1Cl)C2)C(F)(F)F
- IC50 (TRPC5 [1]; [3]): 1 to 5 µM

Structure (SMILES): NC(=O)c1nn(Cc2ccccc2C(F)F)c2c1CN(c1cn[nH]c(=O)c1Cl)CC2
- IC50 (TRPC5 [1]; [5]): 1e-05 to 1 µM

Structure (SMILES): CN1CCN(Cc2nn(Cc3ccccc3C(F)F)c3c2CN(c2cn[nH]c(=O)c2Cl)CC3)C(=O)C1 [drawing 1111]
- IC50 (TRPC5 [1]; [3]): 1e-05 to 1 µM

Structure (SMILES): O=c1[nH]ncc(N2CCc3c(c(CN4CCOCC4)nn3Cc3ccccc3C(F)F)C2)c1Cl
- IC50 (TRPC5 [1]; [3]): 1e-05 to 1 µM

Structure (SMILES): CCCOc1nc2c(n1Cc1ccccc1C(F)(F)F)CCN(c1cn[nH]c(=O)c1Cl)C2
- IC50 (TRPC5 [1]; [3]): 1e-05 to 1 µM

Structure (SMILES): CCCCn1c(Oc2cccc(F)c2)nc2c1CCN(c1cn[nH]c(=O)c1Cl)C2
- IC50 (TRPC5 [1]; [5]): 1 to 5 µM

Structure (SMILES): CNC(=O)c1nn(Cc2ccccc2C(F)F)c2c1CN(c1cn[nH]c(=O)c1Cl)CC2
- IC50 (TRPC5 [1]; [3]): 1e-05 to 1 µM

Structure (SMILES): CCc1ncccc1[C@@H](C)N1CCN(c2cn[nH]c(=O)c2Cl)CC1
- IC50 (TRPC5 [1]; [4]): 1e-05 to 1 µM

Structure (SMILES): Cc1cc(F)ccc1CN1CCN(c2cc(C)c(=O)[nH]n2)CC1
- IC50 (TRPC5 [2]; [6]): 5 to 10 µM
- IC50 (TRPC5 [2]; [7]): 5 to 10 µM

Structure (SMILES): O=C1CN(c2c(Br)n[nH]c(=O)c2Cl)CCN1Cc1ccccc1C(F)(F)F
- IC50 (TRPC5 [2]; [8]): 1 to 5 µM
- IC50 (TRPC5 [2]; [9]): 5 to 10 µM

Structure (SMILES): CC[C@@H]1CN(Cc2ccc(F)cc2C)CCN1c1cn[nH]c(=O)c1Cl
- IC50 (TRPC5 [2]; [8]): 10 to 500 µM
- IC50 (TRPC5 [2]; [9]): 10 to 500 µM

Structure (SMILES): Cc1n[nH]c(=O)c(N2CCN(Cc3ccccc3OC(F)(F)F)C(=O)C2)c1Cl
- IC50 (TRPC5 [2]; [8]): 5 to 10 µM
- IC50 (TRPC5 [2]; [9]): 5 to 10 µM

Structure (SMILES): O=C1CN(c2cn[nH]c(=O)c2Br)CCN1Cc1ccc(F)cc1F
- IC50 (TRPC5 [2]; [10]): 1 to 5 µM
- IC50 (TRPC5 [2]; [11]): 1 to 5 µM

Structure (SMILES): C[C@@H]1CN(CC(=O)N(C)C)CCN1c1cn[nH]c(=O)c1Cl
- IC50 (TRPC5 [2]; [6]): 10 to 500 µM
- IC50 (TRPC5 [2]; [7]): 10 to 500 µM

Structure (SMILES): Cc1ccccc1CN1CCN(c2cn[nH]c(=O)c2N2CCOCC2)CC1=O
- IC50 (TRPC5 [2]; [10]): 10 to 500 µM
- IC50 (TRPC5 [2]; [11]): 10 to 500 µM

Structure (SMILES): Cc1ccccc1CN1CCN(c2cn[nH]c(=O)c2C(C)C)CC1=O
- IC50 (TRPC5 [2]; [6]): 1 to 5 µM
- IC50 (TRPC5 [2]; [7]): 1 to 5 µM

Structure (SMILES): CCc1cn[nH]c(=O)c1N1CCN(Cc2ccc(F)cc2C)CC1
- IC50 (TRPC5 [2]; [8]): 1 to 5 µM
- IC50 (TRPC5 [2]; [9]): 1 to 5 µM

Structure (SMILES): O=c1[nH]ncc(N2CCN(Cc3cccnc3Oc3ccccc3)CC2)c1Cl
- IC50 (TRPC5 [2]; [8]): 5 to 10 µM
- IC50 (TRPC5 [2]; [9]): 5 to 10 µM

Structure (SMILES): O=c1[nH]ncc(N2CCc3c(ncn3Cc3cccc(C(F)(F)F)c3)C2)c1Cl
- IC50 (TRPC5 [2]): 1 to 5 µM

Structure (SMILES): Cc1ccccc1CN1CCN(c2cn[nH]c(=O)c2Br)C(C)C1 (stereo not shown) [drawing 647]
- IC50 (TRPC5 [2]; [10]): 1 to 5 µM
- IC50 (TRPC5 [2]; [11]): 1 to 5 µM

Structure (SMILES): Cc1ccccc1CN1CC2CC1CN2c1cn[nH]c(=O)c1Br (stereo not shown)
- IC50 (TRPC5 [2]; [10]): 10 to 500 µM
- IC50 (TRPC5 [2]; [11]): 10 to 500 µM
